Laboratory results reported in patent US11286252B2, “Alkene spirocyclic compounds as farnesoid X receptor modulators” (BRISTOL-MYERS SQUIBB COMPANY, priority 2017, dated 2022).

Target: T1, human FXR (Homo sapiens, UniProt Q96RI1)
T1 construct: expressed in transfected cells; host or cells: HEK293 cells stably carrying a 5xGal4-response-element firefly luciferase reporter, transiently transfected with pcDNA3.1-Gal4-FXR
T1 sequence (Q96RI1 262-486 limits assumed): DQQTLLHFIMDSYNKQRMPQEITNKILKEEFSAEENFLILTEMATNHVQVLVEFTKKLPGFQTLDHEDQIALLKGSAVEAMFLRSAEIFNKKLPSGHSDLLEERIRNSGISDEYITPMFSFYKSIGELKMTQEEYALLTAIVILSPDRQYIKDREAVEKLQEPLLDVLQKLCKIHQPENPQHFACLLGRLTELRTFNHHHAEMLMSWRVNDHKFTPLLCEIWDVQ
Experiment: transient human FXR/Gal4-luciferase reporter assay
Type: cell-based
Conditions: Gal4-hFXR fusion construct, luciferase reporter HEK293 cells, response relative to 8 μM GW-4064
Description: The exemplified compounds of the present invention were tested in the transient human FXR/Gal4-luciferase reporter assay, and assay results were reported in Table 1 and Examples 1 to 3 together with other analytical data.
A Gal4-hFXR fusion construct reporter system was used as the primary assay to characterize compound activity. A construct including 5 copies of the Gal4 promoter response element upstream of a firefly luciferase reporter cDNA was stably expressed in HEK293 cells. This reporter cell line was maintained in Dulbecco's Modified Eagle's medium (DMEM; Gibco) supplemented with 1% penicillin-streptomycin (P/S) solution, 500 μg/mL Zeocin and 10% charcoal/dextran-treated fetal bovine serum (cs-FBS) at 37° C. in a humidified 5% CO2 atmosphere. Another plasmid was constructed in which the human cytomegalovirus promoter in the pcDNA3.1 vector directs the expression of the cDNA encoding a fusion protein comprised of the DNA binding domain from the Gal4 transcription factor fused to the ligand binding domain from human FXR.
The day prior to transfection, the reporter cells in culture are detached from the plate with trypsin and plated into a T75 flask at a sufficient density to achieve approximately 90% confluence the next morning. The transfection reagents are prepared by separately diluting 25 μg of the pcDNA3.1-Gal4-FXR plasmid into 1.87 mL of Opti-MEM (Thermo-Fisher), and 40 μL of Lipofectamine 2000 (Thermo-Fisher) into 1.87 mL of Opti-MEM, and then adding the diluted DNA solution into the diluted Lipofectamine 2000 solution and incubating at room temperature for 15-20 minutes. The mixture is further diluted with 10 mL of a solution comprised of DMEM, 10% cs-FBS, and 1% P/S immediately prior to transferring to the cells. The maintenance culture media is aspirated from the cells and the final transfection mixture is added before the cells are incubated overnight at 37° C. in a humidified 5% CO2 atmosphere. This protocol can be scaled up, and the transiently transfected cells can be cryopreserved in an assay-ready format.
For compound testing, 100 nL of the compounds (serial dilutions in DMSO) are dispensed with an Echo acoustic dispenser (Labcyte) into the wells of a Corning/Costar clear bottom 384-well white plate. The transfected cells are harvested, counted, and diluted such that 10-25,000 cells in 25 μL are plated into each well of the 384-well compound assay plate. The compound-treated cells are incubated overnight at 37° C. in a humidified 5% CO2 atmosphere. The next morning 25 μL of Steady-Glo (Promega) are added to each well of the plate, the mixture is incubated for 15 min. with shaking, and luminescence is measured on an Envision (Perkin Elmer) plate reader. Background counts from cells treated with DMSO alone are subtracted from all raw counts, and the corrected values are converted to a percentage of the control response attained with 8 μM GW-4064.

Row | Structure (SMILES) | EC50 [nM] | EC50 (unit inferred) [nM]
1 | O=C(O)c1cc(OC2CCC2)c2cc(N3CC4(CC(/C=C/c5c(-c6cccnc6C(F)(F)F)noc5C5CC5)C4)C3)ccc2n1 [Example 3, (E)-4-Cyclobutoxy-6-(6-(2-(5-cyclopropyl-3-(2-(trifluoromethyl)pyridin-3-yl)isoxazol-4-yl)vinyl)-2-azaspiro[3.3]heptan-2-yl)quinoline-2-carboxylic acid] | 86 | 
2 | O=C(O)c1cc(C(F)(F)F)c2cc(OCC3CC4(CC(/C=C/c5c(-c6c(Cl)cncc6Cl)noc5C5CC5)C4)C3)ccc2n1 (stereo not drawn) [Example 46] |  | 22
3 | O=C(O)c1cc(C(F)(F)F)c2cc(N3CC4(CC(/C=C/c5c(-c6c(Cl)cncc6Cl)noc5C5CC5)C4)C3)ccc2n1 [Example 7] |  | 530
4 | Cc1cc(OCC2CC3(CC(/C=C/c4c(-c5ccccc5C(F)(F)F)noc4C4CC4)C3)C2)cnc1C(=O)O (single isomer, unassigned) [Example 31, (E)-5-((6-(2-(5-Cyclopropyl-3-(2-(trifluoromethyl)phenyl)isoxazol-4-yl)vinyl)spiro [3.3]heptan-2-yl)methoxy)-3-methylpicolinic acid] |  | 139
5 | CC(C)Oc1cc(C(=O)O)nc2ccc(N3CC4(CC(/C=C/c5c(-c6c(Cl)cncc6Cl)noc5C5CC5)C4)C3)cc12 [Example 11] |  | 79
6 | COc1cc(C(=O)O)nc2ccc(N3CC4(CC(/C=C/c5c(-c6ccccc6C(F)(F)F)noc5C5CC5)C4)C3)cc12 [Example 16] |  | 104
